Experimental data published in PMC12751066, “Plastidial phosphoglucose isomerase undergoes thioredoxin-mediated redox modification without altering catalytic activity” (Biochemical Journal, 2025).

How the values were obtained:
PGI1 [1] = target: T1, PGI1 (Arabidopsis thaliana, UniProt Q8H103); assay: inhibition at varying 6PG concentrations, coupled spectrophotometric assay; assay type: biochemical; details: F6P or G6P as substrate; 25 °C; reduced and oxidized PGI1
T1 construct: homodimer reported as functional unit
T1 sequence (Q8H103 70-613): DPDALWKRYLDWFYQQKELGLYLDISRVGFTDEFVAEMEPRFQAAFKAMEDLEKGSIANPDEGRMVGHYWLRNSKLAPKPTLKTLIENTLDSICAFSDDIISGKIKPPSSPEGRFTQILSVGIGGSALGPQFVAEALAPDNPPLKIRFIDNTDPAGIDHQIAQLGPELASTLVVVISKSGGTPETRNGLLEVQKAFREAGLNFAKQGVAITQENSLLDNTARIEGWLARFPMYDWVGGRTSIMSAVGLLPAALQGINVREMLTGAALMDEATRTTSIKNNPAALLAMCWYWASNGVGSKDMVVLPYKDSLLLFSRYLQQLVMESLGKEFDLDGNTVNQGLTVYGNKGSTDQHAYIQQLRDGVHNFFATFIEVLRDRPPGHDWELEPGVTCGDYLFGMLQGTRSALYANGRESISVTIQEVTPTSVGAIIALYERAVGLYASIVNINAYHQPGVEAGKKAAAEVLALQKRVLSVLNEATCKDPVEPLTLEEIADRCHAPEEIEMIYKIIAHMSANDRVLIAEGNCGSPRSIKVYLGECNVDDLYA

PGI1 [2] = target: T1, PGI1; assay: inhibition at varying E4P concentrations, coupled spectrophotometric assay; assay type: biochemical; details: F6P or G6P as substrate; 25 °C; reduced and oxidized PGI1

## O=C(O)[C@H](O)[C@@H](O)[C@H](O)[C@H](O)COP(=O)(O)O [6PG]
PGI1 [1]
  inhibition at varying 6PG concentrations, coupled spectrophotometric assay: PGI1 activity decreased with increasing concentrations of E4P (Figure 9A and B) and 6PG

## O=C[C@H](O)[C@H](O)COP(=O)(O)O [E4P]
PGI1 [2]
  inhibition at varying E4P concentrations, coupled spectrophotometric assay: PGI1 activity decreased with increasing concentrations of E4P (Figure 9A and B)
